Assay results published in BindingDB's records for doi:10.7270/Q2KH0KWR (Burnham Center For Chemical Genomics, 2012).

molecular target: T1, Tyrosine-protein phosphatase non-receptor type 5 (Homo sapiens, UniProt P54829); assay: STEP phosphatase inhibitor potency, dose response, orthogonal assay for STEP inhibitor project, biochemical, colorimetric absorbance (AID 624207); conditions: not given
T1 sequence (P54829 whole entry): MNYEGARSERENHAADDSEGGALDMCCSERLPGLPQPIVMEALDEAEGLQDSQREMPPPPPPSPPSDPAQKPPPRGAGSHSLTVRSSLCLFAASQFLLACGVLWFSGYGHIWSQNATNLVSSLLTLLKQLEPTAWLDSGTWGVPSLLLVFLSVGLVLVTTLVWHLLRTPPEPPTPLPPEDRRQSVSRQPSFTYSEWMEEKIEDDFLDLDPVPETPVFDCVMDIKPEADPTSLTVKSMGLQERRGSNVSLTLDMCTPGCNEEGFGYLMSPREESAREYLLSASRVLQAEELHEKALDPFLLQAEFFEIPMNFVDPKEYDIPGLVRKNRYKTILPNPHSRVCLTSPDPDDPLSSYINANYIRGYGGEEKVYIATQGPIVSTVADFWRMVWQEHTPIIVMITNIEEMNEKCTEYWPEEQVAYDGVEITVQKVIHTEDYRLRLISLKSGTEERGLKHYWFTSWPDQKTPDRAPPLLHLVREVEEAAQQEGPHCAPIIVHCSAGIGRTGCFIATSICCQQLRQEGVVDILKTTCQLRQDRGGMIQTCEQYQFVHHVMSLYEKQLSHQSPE

| SMILES | IC50 |
| --- | --- |
| COc1ccc(-c2ccc(NC(=O)c3ccc(Br)o3)cc2)nn1 [MLS001236653] | > 80 µM |
| CSc1ccc(CN=Nc2ccc(S(=O)(=O)Nc3ccccc3C(=O)O)cc2[N+](=O)[O-])cc1 [MLS002245633] | 4.99 µM |
| O=C(N/N=C/C1C=CC=CC1=O)c1cccc([N+](=O)[O-])c1 (stereo unspecified) [MLS002667988] | 15.8 µM |
| O=C(O)Cc1cccc(O)c(=O)c1C(=O)O [MLS002703575] | > 80 µM |
| O=C(Nc1cccc2c(=O)[nH][nH]c(=O)c12)c1ccc([N+](=O)[O-])cc1 [MLS003171605] | > 80 µM |
| CCOC(=O)c1sc2nc3c(SCC(=O)O)cc(C(=O)c4ccccc4O)cn3c(=O)c2c1C [MLS-0266851.0001] | > 80 µM |
| NC(=NOC(=O)c1cccc2ccccc12)c1cccc([N+](=O)[O-])c1 [N'-(1-naphthoyloxy)-3-nitrobenzenecarboximidamide] | > 80 µM |
| COc1cc(Cl)cc(C=NNC(=O)c2ccc3c(c2)OCO3)c1O [N'-[(E)-(3-chloro-5-methoxy-6-oxo-1-cyclohexa-2,4-dienylidene)methyl]-1,3-benzodioxole-5-carbohydrazide] | 23.3 µM |
| Cn1cc(CC(=O)Nc2cccc(C#N)c2)c2ccccc21 [N-(3-cyanophenyl)-2-(1-methyl-1H-indol-3-yl)acetamide] | > 80 µM |
| CCOc1ccc(CCNC(=O)CS(=O)(=O)Cc2nc(-c3ccc(OC)cc3)oc2C)cc1 [N-[2-(4-ethoxyphenyl)ethyl]-2-[[2-(4-methoxyphenyl)-5-methyl-1,3-oxazol-4-yl]methylsulfonyl]ethanamide] | > 80 µM |
| COc1ccccc1NS(=O)(=O)c1cc(NC(=O)c2sccc2C)ccc1N1CCCC1 [N-[3-[(2-methoxyphenyl)sulfamoyl]-4-(1-pyrrolidinyl)phenyl]-3-methyl-2-thiophenecarboxamide] | 6.95 µM |
| CCCCN(CC)Cc1ccc(CN=C(S)Nc2c(C)cc(C)cc2C)o1 [N-[(5-{[butyl(ethyl)amino]methyl}-2-furyl)methyl]-N'-mesitylthiourea] | > 80 µM |
| O=C(N/N=C/c1ccc(Br)s1)c1cccc([N+](=O)[O-])c1 [N-[(E)-(5-bromanylthiophen-2-yl)methylideneamino]-3-nitro-benzamide] | 14.9 µM |
| O=C(COc1ccc([CH+][N-]NC(=O)c2ccncc2)cc1)Nc1ccc([N+](=O)[O-])cc1 [N-[(E)-[4-[2-[(4-nitrophenyl)amino]-2-oxidanylidene-ethoxy]phenyl]methylideneamino]pyridine-4-carboxamide] | > 80 µM |
| O=C(N/N=C/c1ccoc1)c1cc(O)cc(O)c1 [N-[(E)-furan-3-ylmethylideneamino]-3,5-dihydroxybenzamide] | > 80 µM |
| Cc1cc(C(=O)NN=Cc2ccc(-c3ccc([N+](=O)[O-])cc3Cl)o2)[nH]n1 [N-[[5-(2-chloro-4-nitrophenyl)furan-2-yl]methylideneamino]-5-methyl-1H-pyrazole-3-carboxamide] | > 80 µM |
| O=S(=O)(Nc1ccccc1)c1cccc2nsnc12 [N-phenyl-2,1,3-benzothiadiazole-4-sulfonamide] | > 80 µM |

| SMILES | IC50 |
| --- | --- |
| COc1ccc(OC)c(-n2c(O)c3o[nH]c(-c4ccccc4Cl)c-3c2=O)c1 [SMR000046218] | > 80 µM |
| O=Cc1cn(-c2ccccc2)nc1-c1cc2cc(O)ccc2oc1=O [SMR000152596] | > 80 µM |
| CCN(c1ccccc1)S(=O)(=O)c1cc(C(=O)OC(C)C(=O)Nc2ccc3c(c2)OCCO3)ccc1C (stereo unspecified) [SMR000242949] | > 80 µM |
| COc1ccccc1Nc1ccc([N+](=O)[O-])cc1N [SMR000260154] | > 80 µM |
| O=C(NC1CCCCCC1)C(=S)NC1CCCCC1 [SMR000296231] | > 80 µM |
| N=C1S/C(=C\c2ccc(O)cc2)C(=O)N1c1ccc(F)cc1 [SMR000298434] | > 80 µM |
| O=C(COc1ccc([N+](=O)[O-])cc1)Nc1nnc(-c2cccnc2)s1 [SMR000385697] | > 80 µM |
| Cc1ccc(NC(=O)CN2C(=O)S/C(=C\c3ccc(OCC(=O)O)c(Br)c3)C2=O)cc1 [SMR000477386] | > 80 µM |
| Cc1ccc(NC(=O)CCn2c(=S)oc3ccccc32)cc1F [SMR000564947] | > 80 µM |
| CCOC(=O)CC(NS(=O)(=O)c1ccc2ncc(C(=O)O)c(O)c2c1)c1ccc(OCC)c(OC)c1 (stereo unspecified) [SMR000621519] | > 80 µM |
| O=C(NN=Cc1ccccc1O)NN=Cc1ccccc1O [SMR001556943] | 32.5 µM |
| CC(=NNC(=S)N1CC2CCC(CC2)C1)c1cccc(C)n1 [SMR001565418] | > 80 µM |
| CCN(c1ccccc1)S(=O)(=O)c1cc(C(=O)OCC(=O)c2c(N)n(C)c(=O)n(C)c2=O)ccc1C [[2-(4-amino-1,3-dimethyl-2,6-dioxopyrimidin-5-yl)-2-oxoethyl] 3-[ethyl(phenyl)sulfamoyl]-4-methylbenzoate] | > 80 µM |
| COc1ccc(CN=Nc2nc(O)c(CC(=O)O)s2)cc1OCc1ccc(Cl)cc1Cl [[2-({3-[(2,4-dichlorobenzyl)oxy]-4-methoxybenzylidene}hydrazono)-4-oxo-1,3-thiazolidin-5-yl]acetic acid] | 13.6 µM |
| Cc1ccccc1N1CCN(C(=S)c2ccc(-c3cccc([N+](=O)[O-])c3)o2)CC1 [[4-(2-methylphenyl)-1-piperazinyl]-[5-(3-nitrophenyl)-2-furanyl]methanethione] | > 80 µM |
| NS(=O)(=O)c1ccccc1 [sodium;phenylsulfonylazanide] | 73 µM |
| CC1=C(C(=O)OC(C)C)C(c2ccc(Cl)cc2)n2c(s/c(=C\c3ccc(OCC(=O)O)cc3)c2=O)=N1 (stereo unspecified) [{4-[(5-(4-chlorophenyl)-6-(isopropoxycarbonyl)-7-methyl-3-oxo-5H-[1,3]thiazolo[3,2-a]pyrimidin-2(3H)-ylidene)methyl]phenoxy}acetic acid] | 5.83 µM |

same assay, conditions: inactive by the depositor's call

| SMILES | IC50 |
| --- | --- |
| Sc1ncnc2c1ncn2-c1ccc(Cl)cc1 [MLS002638664] | 64.8 µM |
| S=C(c1cn(CCOc2ccccc2)c2ccccc12)N1CCCC1 [MLS-0109562.0001] | 41.3 µM |
| COc1cc(Cl)ccc1N=C(S)N(CCCN1CCOCC1)Cc1cn(C)c2ccccc12 [N'-(4-chloro-2-methoxyphenyl)-N-[(1-methyl-1H-indol-3-yl)methyl]-N-(3-morpholin-4-ylpropyl)thiourea] | 34.4 µM |
| COc1ccc(Cl)cc1N=C(S)N(CCCN1CCOCC1)Cc1cn(C)c2ccccc12 [N'-(5-chloro-2-methoxyphenyl)-N-[(1-methyl-1H-indol-3-yl)methyl]-N-(3-morpholin-4-ylpropyl)thiourea] | 36.9 µM |
| COc1cccc(-c2cc(C(=O)Nc3nc4ccccc4s3)c3ccccc3n2)c1 [N-(1,3-benzothiazol-2-yl)-2-(3-methoxyphenyl)-4-quinolinecarboxamide] | 78.3 µM |
| COc1ccc(NC(=S)N2CCC(N(C)CC3CCCO3)CC2)cc1Cl (stereo unspecified) [N-(3-chloranyl-4-methoxy-phenyl)-4-[methyl(oxolan-2-ylmethyl)amino]piperidine-1-carbothioamide] | 40.3 µM |
| CCCCC(=O)Nc1ccc(C(=O)NNC(=O)c2ccc(C)c(Br)c2)cc1 [N-(4-{[2-(3-bromo-4-methylbenzoyl)hydrazino]carbonyl}phenyl)pentanamide] | 53.8 µM |
| CN1CCN(C(S)=Nc2ccc(S(N)(=O)=O)cc2)CC1 [N-[4-(aminosulfonyl)phenyl]-4-methyl-1-piperazinecarbothioamide] | 41.5 µM |
| O=C(N/N=C/c1cccc(Br)c1)c1ccc(N2CCCC2=O)cc1 [N-[(E)-(3-bromophenyl)methylideneamino]-4-(2-oxidanylidenepyrrolidin-1-yl)benzamide] | 22.9 µM |
| O=C(COc1ccc(/C=N/NC(=O)c2ccccc2O)cc1)Nc1ccccc1 [N-[(E)-[4-(2-anilino-2-oxoethoxy)phenyl]methylideneamino]-2-hydroxybenzamide] | 23.6 µM |
| CCN1CCN(C(=S)c2ccc(Cl)c(Cl)c2)CC1 [SMR000143195] | 39.3 µM |
| O=C(O)CCC(/N=N/c1ccc(S(=O)(=O)N2CCCC2)cc1[N+](=O)[O-])c1cccs1 (stereo unspecified) [SMR000151450] | 32.8 µM |
| CCN1CCN(C(=S)c2ccc(Br)cc2)CC1 [SMR000198085] | 63.9 µM |
| N=C(NCc1ccc2c(c1)OCO2)NC(=O)c1ccccc1 [SMR000293067] | 77 µM |
| CCOC(=O)N1CCC(N(CCN(C)C)C(=S)Nc2ccc(Oc3ccccc3)cc2)CC1 [SMR000311544] | 27 µM |
| COc1cc(/C=N/NC(=O)c2ccccc2O)ccc1OCC(=O)Nc1ccccc1 [SMR000515267] | 44.7 µM |
| COC(=O)c1ccccc1CSc1nsc(/C=C/N(C)C)c1C#N [SMR000549393] | 33.5 µM |
| Cc1ccc(NC(=O)c2ccc3nc(N4CCOCC4)sc3c2)c(Cl)c1 [SMR000624920] | 22.4 µM |
| Cc1c(C)c2ccc(OCC(=O)Nc3ccc(S(N)(=O)=O)cc3)c(C)c2oc1=O [SMR000652408] | 36.1 µM |
| Cc1sc2nc(CSC(C)C(=O)Nc3ccc(Cl)cn3)nc(O)c2c1C (stereo unspecified) [SMR001268769] | 38.4 µM |
| CCOC(=O)N1CCC(N(CCN(C)C)C(=S)Nc2cc(Cl)ccc2C)CC1 [ethyl 4-[(5-chloranyl-2-methyl-phenyl)carbamothioyl-[2-(dimethylamino)ethyl]amino]piperidine-1-carboxylate] | 77.1 µM |
| CCOC(=O)c1c(NC(=O)OC)sc(C(=O)N(CC)CC)c1C [ethyl 5-(diethylcarbamoyl)-2-(methoxycarbonylamino)-4-methylthiophene-3-carboxylate] | 44.3 µM |
